According to article PMC6317804, “The integration of pharmacophore-based 3D QSAR modeling and virtual screening in safety profiling: A case study to identify antagonistic activities against adenosine receptor, A2A, using 1,897 known drugs” (PLoS ONE, 2019):
pIC50: −log10 of the molar value. Where two headings read alike, the source gives them in different places.

What was measured:
[1] = biological target: T1, adenosine receptor 2A (A2A) (Homo sapiens, UniProt P29274); details: cited from earlier work; for pIC50: S1 Table, compounds given as SMILES, downloaded from ChEMBL; for measured pIC50: training set compound, negative logarithm of IC50
T1 construct: CEREP (Poitiers, France), paid service
T1 sequence (P29274 whole entry): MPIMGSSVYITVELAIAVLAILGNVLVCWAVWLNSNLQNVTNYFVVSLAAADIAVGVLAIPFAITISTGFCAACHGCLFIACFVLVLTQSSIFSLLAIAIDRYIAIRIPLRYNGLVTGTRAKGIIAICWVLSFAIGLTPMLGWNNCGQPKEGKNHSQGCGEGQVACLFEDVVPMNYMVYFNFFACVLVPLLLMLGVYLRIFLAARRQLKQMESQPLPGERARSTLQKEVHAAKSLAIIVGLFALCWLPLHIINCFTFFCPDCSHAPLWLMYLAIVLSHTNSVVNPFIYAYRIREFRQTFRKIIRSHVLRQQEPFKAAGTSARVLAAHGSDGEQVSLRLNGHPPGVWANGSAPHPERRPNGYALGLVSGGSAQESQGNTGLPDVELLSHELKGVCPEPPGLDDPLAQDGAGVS

[2] = biological target: T1, adenosine receptor 2A (A2A); assay: Functional antagonist assay monitoring cAMP (CEREP); type: cell-based;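 on IC50, cAMP, M: eight-point concentration-response from 0 to 10 µM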
Protocol: (§1) Competition binding assay using radioactive ligands and functional assay monitoring cAMP were carried out as a paid service provided by CEREP (Poitiers, France). The functional assays monitoring Ca^2+ flux were carried out as a paid service provided by DiscoveRx (Carlsbad, CA).

[3] = biological target: T1, adenosine receptor 2A (A2A); assay: Competition binding assay using radioactive ligands (CEREP); parameters: inhibition: dose or concentration left out as unconfirmed; details: for inhibition at 10 µM: fixed compound concentration of 10 μM;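 on all read-outs here: compounds screened at a single fixed 10 µM concentration for displacement of a radioligand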
Protocol: as §1

[4] = biological target: T1, adenosine receptor 2A (A2A); assay: Functional assay monitoring Ca2+ flux (DiscoveRx); type: cell-based; parameters: inhibition: dose or concentration left out as unconfirmed; details: for inhibition: read-out: IC50, Ca2+, M
Protocol: as §1

[5] = concentration-response up to 10 μM, read-out: IC50, cAMP
[6] = concentration-response up to 10 μM, read-out: IC50, Ca2+

Row | Compound | pIC50 [1] | other results
1 | CCNc1cc2nc(NCc3cccnc3)nc(C(=O)c3cccs3)c2s1 | 5.60 | –
2 | CCOC(=O)Nc1cc(-c2cncc(OC)c2)nc(-n2nc(C)cc2C)n1 | 6.71 | –
3 | Cc1ccc(C(=O)c2nc(NC(C)c3ccccc3)nc3ccsc23)s1 (centres unmarked) | 5.97 | –
4 | Cc1ccc(C(=O)c2nc(NC(C)c3ccccn3)nc3ccsc23)s1 (centres unmarked) | 6.93 | –
5 | Cc1ccc(C(=O)c2nc(NC(C)c3cccnc3)nc3ccsc23)s1 (centres unmarked) | 7.00 | –
6 | CC(=O)Nc1cc(-c2cccc(N3CCC(O)CC3)n2)nc(-n2nc(C)cc2C)n1 | 7.66 | –
7 | CC(=O)Nc1cc(-c2cncc(O)c2)nc(-n2nc(C)cc2C)n1 | 7.19 | –
8 | CCc1ccccc1-n1nc(C)c(-c2ccc3nccnc3c2)c1Nc1ccc(OC)cc1C(=O)O | 4.30 | –
9 | CCc1nn(-c2ccccc2C)c(Nc2ccccc2C(=O)O)c1-c1ccc2nccnc2c1 | 4.30 | –
10 | CN(C)c1cc2nc(NCc3cccnc3)nc(C(=O)c3cccs3)c2s1 | 5.85 | –
11 | Cc1ccc(C(=O)c2nc(N(C)Cc3cccnc3)nc3ccsc23)s1 | 5.64 | –
12 | CNc1cc2nc(NCc3cccnc3)nc(C(=O)c3cccs3)c2s1 | 6.02 | –
13 | COC(=O)Nc1cc(-c2cncc(OC)c2)nc(-n2nc(C)cc2C)n1 | 6.78 | –
14 | COc1ccc(CCCn2ncc3c2nc(N)n2nc(-c4ccco4)nc32)cc1OC | 7.70 | –
15 | COc1ccc(Nc2c(-c3ccc4nccnc4c3)c(C)nn2-c2ccccc2C)c(C(=O)O)c1 | 4.30 | –
16 | COc1ccc(Nc2c(-c3ccc4nccnc4c3)c(C)nn2-c2ccccc2Cl)c(C(=O)O)c1 | 4.30 | –
17 | COc1ccc(C(=O)c2nc(NCc3cccnc3)nc3ccsc23)cc1 | 6.20 | –
18 | COc1cccc(-c2cc(NC(C)=O)nc(-n3nc(C)cc3C)n2)c1F | 7.49 | –
19 | C[C@H](Nc1nc(C(=O)N2CCCC2)c2sccc2n1)c1cccnc1 | 6.33 | –
20 | C[C@@H](Nc1nc(C(=O)N2CCCC2)c2sccc2n1)c1cccnc1 | 5.17 | –
21 | Cc1ccc(Nc2c(-c3ccc4nccnc4c3)c(C)nn2-c2ccccc2C)c(C(=O)O)c1 | 4.30 | –
22 | Cc1ccc(C(=O)c2nc(NCc3cccnc3)nc3ccsc23)cc1 | 6.35 | –
23 | Cc1ccc(C(=O)c2nc(NCCc3ccccn3)nc3ccsc23)s1 | 6.45 | –
24 | Cc1ccc(C(=O)c2nc(NCCc3cccnc3)nc3ccsc23)s1 | 6.75 | –

Row | Compound | pIC50 [1] | other results
25 | Cc1ccc(C(=O)c2nc(NC(=O)c3cccnc3)nc3ccsc23)s1 | 6.79 | –
26 | Cc1ccccc1-n1nc(C)c(-c2cc(F)c3nccnc3c2)c1Nc1ccccc1C(=O)O | 4.30 | –
27 | Cc1ccccc1-n1nc(C)c(-c2ccc3nccnc3c2)c1Nc1ccc(Cl)cc1C(=O)O | 4.30 | –
28 | Cc1ccccc1-n1nc(C(F)(F)F)c(-c2ccc3nccnc3c2)c1Nc1ccccc1C(=O)O | 4.30 | –
29 | Cc1ccccc1-n1ncc(-c2ccc3nccnc3c2)c1Nc1ccccc1C(=O)O | 4.30 | –
30 | CCNc1c2c(nc(NC(=O)Nc3ccc(OC)cc3)n3nc(-c4ccco4)nc23)nn1C | 7.21 | –
31 | O=C(c1cccs1)c1nc(NCc2cccnc2)nc2cc(Cl)sc12 | 7.21 | –
32 | O=C(c1ccc(Cl)s1)c1nc(NCc2cccnc2)nc2ccsc12 | 5.81 | –
33 | Nc1nc2c(cnn2CCCc2ccc(O)cc2)c2nc(-c3ccco3)nn12 | 8.00 | –
34 | Nc1nc2c(cnn2CCc2ccc(OCc3ccccc3)cc2)c2nc(-c3ccco3)nn12 | 7.05 | –
35 | Nc1nc2c(cnn2Cc2ccc(OCc3ccccc3)cc2)c2nc(-c3ccco3)nn12 | 6.30 | –
36 | 5-methoxy-2-((3-methyl-1-phenyl-4-(quinoxalin-6-yl)-1H-pyrazol-5-yl)amino)benzoic acid | 5.26 | pIC50 ([1]; listed as COc1ccc(Nc2c(c(C)nn2C3CCCCC3)c4ccc5nccnc5c4)c(c1)C(=O)O): 4.30; measured pIC50 [1]: 4.3
37 | N=C(N)NC(=O)c1nc(Cl)c(N)nc1N [Amiloride] | – | inhibition ([2]; read-out: IC50, cAMP, M): < 50%; inhibition ([3]; read-out: %inhibition, binding): 53%; inhibition [4]: < 50%
38 | Cc1cc2c(OCC(CNC(C)(C)C)OC(=O)c3ccccc3)cccc2[nH]1 (centres unmarked) [Bopindolol] | – | inhibition at up to 10 µM [2, 5]: < 50%; inhibition at 10 µM [3]: < 50%; inhibition [4]: < 50%
39 | CC(C)C[C@H](NC(=O)[C@H](Cc1ccccc1)NC(=O)c1cnccn1)B(O)O [Bortezomib] | – | inhibition at up to 10 µM [2, 5]: < 50%; inhibition at 10 µM [3]: < 50%; inhibition [4]: < 50%
40 | COc1ccccc1Oc1c(NS(=O)(=O)c2ccc(C(C)(C)C)cc2)nc(-c2ncccn2)nc1OCCO [Bosentan] | – | inhibition at 10 µM [2, 5]: < 50%; inhibition at 10 µM [3]: < 50%; inhibition at 10 µM [4, 6]: < 50%
41 | CC(C)NC(=O)c1nc(NCc2cccnc2)nc2ccsc12 [CC(C)NC(=O)c1nc(NCc2cccnc2)nc3ccsc13, N-isopropyl-2-((pyridin-3-ylmethyl)amino)thieno[3,2-d]pyrimidine-4-carboxamide] | – | measured pIC50 [1]: 5.6
42 | CC(Nc1nc(C(=O)N2CCCC2)c2sccc2n1)c1cccnc1 (centres unmarked) [CC(Nc1nc(C(=O)N2CCCC2)c3sccc3n1)c4cccnc4] | 5.63 | –
43 | CCCSc1c2c(nc(N)n3nc(-c4ccco4)nc23)nn1C [CCCSc1c2c(nc(N)n3nc(nc23)c4occc4)nn1C] | 7.83 | –
44 | CCNC(=O)c1nc(NCc2cccnc2)nc2ccsc12 [CCNC(=O)c1nc(NCc2cccnc2)nc3ccsc13] | 5.60 | –
45 | CCNc1nc(C(=O)c2ccc(C)s2)c2sccc2n1 [CCNc1nc(C(=O)c2ccc(C)s2)c3sccc3n1] | 6.90 | –
46 | CCc1nc(C(=O)c2ccc(C)s2)c2sccc2n1 [CCc1nc(C(=O)c2ccc(C)s2)c3sccc3n1] | 5.41 | –
47 | CSc1c2c(nc(N)n3nc(-c4ccco4)nc23)nn1C [CSc1c2c(nc(N)n3nc(nc23)c4occc4)nn1C] | 8.21 | –
48 | C=CCN1C[C@H](C(=O)N(CCCN(C)C)C(=O)NCC)C[C@@H]2c3cccc4[nH]cc(c34)C[C@H]21 [Cabergoline] | – | inhibition at up to 10 µM [2, 5]: < 50%; inhibition at 10 µM [3]: < 50%; inhibition [4]: < 50%

Row | Compound | pIC50 [1] | other results
49 | CCCCCOC(=O)Nc1nc(=O)n([C@@H]2O[C@H](C)[C@@H](O)[C@H]2O)cc1F [Capecitabine] | – | inhibition at up to 10 µM [2, 5]: < 50%; inhibition at 10 µM [3]: < 50%; inhibition [4]: < 50%
50 | Cc1nc(C(=O)c2ccc(C)s2)c2sccc2n1 [Cc1ccc(s1)C(=O)c2nc(C)nc3ccsc23] | 5.11 | –
51 | Cc1ccc(C(=O)c2nc(N)nc3ccsc23)s1 [Cc1ccc(s1)C(=O)c2nc(N)nc3ccsc23] | 6.66 | –
52 | Cc1ccc(C(=O)c2nc(NCC3CCCCC3)nc3ccsc23)s1 [Cc1ccc(s1)C(=O)c2nc(NCC3CCCCC3)nc4ccsc24] | 5.00 | pIC50 ([1]; listed as Cc1ccc(s1)C(=O)c2nc(NCc3ccccc3)nc4ccsc24): 5.15
53 | Cc1ccc(C(=O)c2nc(NCc3ccccn3)nc3ccsc23)s1 [Cc1ccc(s1)C(=O)c2nc(NCc3ccccn3)nc4ccsc24] | 6.73 | –
54 | Cc1ccc(C(=O)c2nc(NCc3cccnc3)nc3ccsc23)s1 [Cc1ccc(s1)C(=O)c2nc(NCc3cccnc3)nc4ccsc24] | 6.00 | –
55 | Cc1ccc(C(=O)c2nc(NCc3ccncn3)nc3ccsc23)s1 [Cc1ccc(s1)C(=O)c2nc(NCc3ccncn3)nc4ccsc24] | 6.94 | measured pIC50 [1]: 6.9
56 | Cc1ccc(C(=O)c2ncnc3ccsc23)s1 [Cc1ccc(s1)C(=O)c2ncnc3ccsc23] | 5.17 | –
57 | Cc1ccc(C(=O)c2nc(NCc3cccnc3)nc3ccsc23)o1 [Cc1oc(cc1)C(=O)c2nc(NCc3cccnc3)nc4ccsc24] | 5.90 | –
58 | CC1=C(C(=O)O)N2C(=O)[C@@H](NC(=O)[C@H](N)c3ccc(O)cc3)[C@H]2SC1 [Cefadroxil] | – | inhibition at up to 10 µM [2, 5]: < 50%; inhibition at 10 µM [3]: < 50%; inhibition at up to 10 µM [4, 6]: < 50%
59 | C=CC1=C(C(=O)O)N2C(=O)[C@@H](NC(=O)/C(=N\O)c3csc(N)n3)[C@H]2SC1 [Cefdinir] | – | inhibition at up to 10 µM [2, 5]: < 50%; inhibition at 10 µM [3]: < 50%; inhibition [4]: < 50%
60 | C=CC1=C(C(=O)O)N2C(=O)[C@@H](NC(=O)/C(=N\OCC(=O)O)c3csc(N)n3)[C@H]2SC1 [Cefixime] | – | inhibition at up to 10 µM [2, 5]: < 50%; inhibition at 10 µM [3]: < 50%; inhibition [4]: < 50%
61 | CO[C@@]1(NC(=O)Cc2cccs2)C(=O)N2C(C(=O)O)=C(COC(N)=O)CS[C@@H]21 [Cefoxitin] | – | inhibition at up to 10 µM [2, 5]: < 50%; inhibition at 10 µM [3]: < 50%; inhibition [4]: < 50%
62 | Nc1cc2nc(NCc3cccnc3)nc(C(=O)c3cccs3)c2s1 [Nc1cc2nc(NCc3cccnc3)nc(C(=O)c4cccs4)c2s1] | 5.00 | –
63 | O=C(c1nc(NCc2cccnc2)nc2ccsc12)N1CCCC1 [O=C(N1CCCC1)c2nc(NCc3cccnc3)nc4ccsc24] | 5.21 | –
64 | O=C(NC1CC1)c1nc(NCc2cccnc2)nc2ccsc12 [O=C(NC1CC1)c2nc(NCc3cccnc3)nc4ccsc24] | 6.15 | –
65 | O=C(c1ccccc1)c1nc(NCc2cccnc2)nc2ccsc12 [O=C(c1ccccc1)c2nc(NCc3cccnc3)nc4ccsc24] | 5.79 | –
66 | O=C(c1cccnc1)c1nc(NCc2cccnc2)nc2ccsc12 [O=C(c1cccnc1)c2nc(NCc3cccnc3)nc4ccsc24] | 5.93 | –
67 | O=C(c1cccs1)c1nc(NCc2cccnc2)nc2ccsc12 [O=C(c1cccs1)c2nc(NCc3cccnc3)nc4ccsc24] | 7.29 | –
68 | O=C(c1ccncc1)c1nc(NCc2cccnc2)nc2ccsc12 [O=C(c1ccncc1)c2nc(NCc3cccnc3)nc4ccsc24] | 5.71 | –
69 | O=C(c1ccsc1)c1nc(NCc2cccnc2)nc2ccsc12 [O=C(c1ccsc1)c2nc(NCc3cccnc3)nc4ccsc24] | 6.39 | –
70 | O=C(c1cncs1)c1nc(NCc2cccnc2)nc2ccsc12 [O=C(c1cncs1)c2nc(NCc3cccnc3)nc4ccsc24] | 5.77 | –
71 | O=C(c1nccs1)c1nc(NCc2cccnc2)nc2ccsc12 [O=C(c1nccs1)c2nc(NCc3cccnc3)nc4ccsc24] | 6.14 | –
